Experiments:
Human plasma = Human plasma anticoagulation, thrombin time (TT); assay type: biochemical; conditions: concentration required to double the thrombin time, linear extrapolation
Protocol: Dog plasma and rat plasma is obtained from conscious mixed-breed hounds (either sex, Hazelton-LRE, Kalamazoo, Mich., U.S.A.) or from anesthetized male Sprague-Dawley rats (Harlan Sprague-Dawley, Inc., Indianapolis, Ind., U.S.A.) by venipuncture into 3.8 percent citrate. Fibrinogen is prepared from in-date ACD human blood as the fraction I-2 according to previous procedures and specifications. Smith, Biochem. J., 185, 1-11 (1980); and Smith, et al., Biochemistry, 11, 2958-2967 (1972). Human fibrinogen is also purchased as 98 percent pure/plasmin free from American Diagnostica, Greenwich, Conn. Coagulation reagents ACTIN, Thromboplastin, and Human plasma are from Baxter Healthcare Corp., Dade Division, Miami, Fla. Bovine thrombin from Parke-Davis ([…], Mich.) is used for coagulation assays in plasma.
Coagulation assay procedures are as previously described. Smith, et al., Thrombosis Research, 50, 163-174 (1988). A CoAScreener coagulation instrument (American LABor, Inc.) is used for all coagulation assay measurements. The prothrombin time (PT) is measured by adding 0.05 mL saline and 0.05 mL Thromboplastin-C reagent to 0.05 mL test plasma. The activated partial thromboplastin time (APTT) is measured by incubation of 0.05 mL test plasma with 0.05 mL Actin reagent for 120 seconds followed by 0.05 mL CaCl2 (0.02M). The thrombin time (TT) is measured by adding 0.05 mL saline and 0.05 mL thrombin (10 NIH units/mL) to 0.05 mL test plasma. The compounds of formula I are added to human or animal plasma over a wide range of concentrations to determine prolongation effects on the APTT, PT, and TT assays. Linear extrapolations are performed to estimate the concentrations required to double the clotting time for each assay.

Human Thrombin = Human Thrombin (Homo sapiens, UniProt P00734); assay: Inhibition of amidase activity of thrombin (Kass); assay type: biochemical; conditions: apparent association constant, mean over a range of concentrations
Protocol: The assay is carried out by mixing 50 μL buffer (0.03M Tris, 0.15M NaCl, pH 7.4) with 25 μL of bovine thrombin or human thrombin solution (0.21 mg/mL of thrombostat bovine thrombin, Parke-Davis, or purified human thrombin, Enzyme Research Laboratories, South Bend, Ind., at about 8 NIH units/mL, in the same buffer) and 25 μL of test compound in a solvent (in 50% aqueous methanol, v:v). The 150 μL of an aqueous solution of the chromogenic substrate (at 0.25 mg/mL) are added and the rates of hydrolysis of the substrate are measured by monitoring the reactions at 405 nm for the release of p-nitroaniline. Standard curves are constructed by plotting free thrombin concentration against hydrolysis rate. The hydrolysis rates observed with test compounds are then converted to "free thrombin" values in the respective assays by use of the standard curves. The bound thrombin (bound to test compound) is calculated by subtracting the amount of free thrombin observed in each assay from the known initial amount of thrombin used in the assay. The amount of free inhibitor in each assay is calculated by subtracting the number of moles of bound thrombin from the number of moles of added inhibitor (test compound).
The Kass value is the hypothetical equilibrium constant for the reaction between thrombin and the test compound (I). [drawing 54]
Kass is calculated for a range of concentrations of test compounds and the mean value is reported in units of liter per mole.

[1] = Index of bioavailability (% Relative Activity from plasma TT AUC, oral vs i.v.); assay type: in vivo; conditions: dose-adjusted AUC of plasma TT, p.o. versus i.v. bolus
Protocol: Plasma thrombin time (TT) and activated partial thromboplastin time (APTT) are measured with a fibrometer. Blood is sampled from a jugular catheter and collected in syringe containing sodium citrate (3.8%, 1 part to 9 parts blood). To measure TT, rat plasma (0.1 mL) is mixed with saline (0.1 mL) and bovine thrombin (0.1 mL, 30 U/mL in TRIS buffer; Parke Davis) at 37° C. For APTT, plasma (0.1 mL) and APTT solution (0.1 mL, Organon Teknika) are incubated for 5 minutes (37° C.) and CaCl2 (0.01 mL, 0.025M) is added to start coagulation. Assays are done in duplicate and averaged.
A measure of bioactivity, plasma thrombin time (TT), served as a substitute for the assay of parent compound on the assumption that increments in TT resulted from thrombin inhibition by parent only. The time course of the effect of the thrombin inhibitor upon TT is determined after i.v. bolus administration to anesthetized rats and after oral treatment of fasted conscious rats. Due to limitations of blood volume and the number of points required to determine the time course from time of treatment to the time when the response returned to pretreatment values, two populations of rats are used. Each sample population represented alternating sequential time points. The average TT over the time course is used to calculate area under the curve (AUC). The index of bioavailability is calculated by the formula shown below and is expressed as percent relative activity.
The area under the curve (AUC) of the plasma TT time course is determined and adjusted for the dose. This index of bioavailability is termed "% Relative Activity" and is calculated as [formula] Compounds
Compound solutions are prepared fresh daily in normal saline and are injected as a bolus or are infused starting 15 minutes before and continuing throughout the experimental perturbation which is 15 minutes in the arteriovenous shunt model and 60 minutes in the FeCl3 model of arterial injury and in the spontaneous thombosis model. Bolus injection volume is 1 mL/kg for i.v., and 5 mL/kg for p.o. and infusion volume is 3 mL/hr.

Structure (SMILES) | 2x Clotting time, TT (Human plasma) [ng/mL] | Enzyme Kass, Human Thrombin (Human Thrombin) | % oral/i.v. activity (Rat) [1] [%] | 2x Clotting time, TT (Human plasma; HCl) [ng/mL] | Enzyme Kass, Human Thrombin (Human Thrombin; HCl)
C[C@H]1C[C@@H](C(=O)N[C@H](C=O)CCCNC(=N)N)N(C(=O)[C@H]2CCCCN2)C1.Cl.Cl (relative stereo) [Example 1, D-homoprolyl-L-cis-4-methyl-prolyl-L-argininal dihydrochloride] | 60 | 220 L/mol × 10^6 | 47 |  | 
CC[C@H]1C[C@@H](C(=O)N[C@H](C=O)CCCNC(=N)N)N(C(=O)[C@H]2CCCCN2)C1.Cl.Cl (relative stereo) [Example 2, D-homoprolyl-L-cis-4-ethyl-prolyl-L-argininal dihydrochloride] | 51 | 230 L/mol × 10^6 | 50 |  | 
CCC[C@H]1C[C@@H](C(=O)N[C@H](C=O)CCCNC(=N)N)N(C(=O)[C@H]2CCCCN2)C1.Cl.Cl (relative stereo) [Example 3, D-hPro-Pro(4-cis-n-propyl)-ArgH.2 HCl] | 120 | 27 L/mol × 10^6 | 45 |  | 
Cl.Cl.N=C(N)NCCC[C@@H](C=O)NC(=O)[C@@H]1C[C@H](Cc2ccccc2)CN1C(=O)[C@H]1CCCCN1 (relative stereo) [Example 5, D-hPro-Pro(4-cis-benzyl)-ArgH.2 HCl] | 80 | 110 L/mol × 10^6 | 20 |  | 
Cl.Cl.N=C(N)NCCC[C@@H](C=O)NC(=O)[C@@H]1CC2CCCCC2N1C(=O)[C@H]1CCCCN1 (relative stereo) [Example 7, N-[(1-D-homoprolyl-cis-octahydro-1H-indol-2(S)-yl)carbonyl]-L-argininal dihydrochloride] | 37 | 340 L/mol × 10^6 | 50 |  | 
Cl.Cl.N=C(N)NCCC[C@H](C=O)NC(=O)[C@@H]1C[C@H](Oc2ccccc2)CN1C(=O)[C@H]1CCCCN1 (relative stereo) [Example 8, D-homoprolyl-L-cis-4-phenoxy-L-prolyl-D-argininal dihydrochloride] | 70 | 50 L/mol × 10^6 | 20 |  | 
Cl.Cl.Cl.N=C(N)NCCC[C@@H](C=O)NC(=O)[C@@H]1C[C@H](Oc2cccnc2)CN1C(=O)[C@H]1CCCCN1 (relative stereo) [Example 9, D-hPro-Pro(4-cis-(3-pyridyloxy))-ArgH.3 HCl] | 50 | 37 L/mol × 10^6 | 13 |  | 
Cl.Cl.Cl.N=C(N)NCCC[C@@H](C=O)NC(=O)[C@@H]1C[C@H](Oc2ccc(N)cc2)CN1C(=O)[C@H]1CCCCN1 (relative stereo) [Example 11, D-hPro-Pro(4-cis-(4-NH2-phenoxy))-ArgH.3 HCl] | 96 | 28 L/mol × 10^6 | 9 |  | 
Cl.Cl.N=C(N)NCCC[C@@H](C=O)NC(=O)[C@@H]1C[C@H](Oc2ccccc2)CN1C(=O)C1NCCC2CCCCC21 (relative stereo) [Example 15, D-1-Piq-Pro(4-cis-phenoxy)-ArgH.2 HCl] | 28 | 230 L/mol × 10^6 | 5 |  | 
CCS(=O)(=O)N[C@@H](C(=O)N1[C@H](C(=O)N[C@H](C=O)CCCNC(=N)N)C[C@@H]2CCCC[C@@H]21)c1ccccc1.Cl (relative stereo) [Example 22, EtSO2 -D-Phg-cis-Ohi-ArgH.HCl] | 9 | 6,170 L/mol × 10^6 | 30 |  | 
Cl.Cl.N=C(N)NCCCC(C=O)NC(=O)C1CC2CCCCC2N1C(=O)C1NCCC2CCCCC21 [Example 20, D-1-cis-Piq-cis-Ohi-ArgH.2 HCl] |  |  | 6 | 19 | 1,630 L/mol × 10^6

Source: patent publication US5599793A, “Antithromobotic agents” (Eli Lilly and Company, priority 1995, dated 1997)
